Source: US12213482B2, “Fungicide enhancers effective for treating plants infected with fungal pathogens” (Board of Regents, The University of Texas System, priority 2015, dated 2025)

Experiments:
Format in all cases: cell-based
[1] = tested on: Colletotrichum graminicola; test: Antifungal susceptibility disk test, fungicide disk plus apyrase inhibitor in plate; conditions: inhibitor 65 μM, 30° C., 7 days; for inhibitory effect on the growth of C. graminicola compared to copper octanoate alone: combined with copper octanoate (285 mM) disk, FIG. 3A; for inhibitory effect on the growth of C. graminicola compared to myclobutanil alone: combined with myclobutanil (53.6 mM) disk, FIG. 3B
Protocol: (§1) Copper Octanoate, 3B. Propiconazole, and 3C. Myclobutanil against the pathogenic fungi Colletotrichum graminicola. […] The equivalent volume of dimethylsulphoxide (DMSO) was added as a control. The studies were repeated two times with similar results. Error bars indicate standard deviations (n=5). The significances of the potency of fungicides are indicated: *** (Student's t-test, P<0.001; **(Student's t-test, P<0.01) or *(Student's t-test, P<0.05). The plant pathogenic fungal strains Botrytis cinerea, Colletotrichum graminicola, Fusarium oxysporum, Sclerotiana sclerotiorum and Verticillium dahliae were obtained from the Institute for Plant Genomics & Biotechnology, Texas A & M University, USA Potato dextrose agar (PDA, Sigma-Aldrich) was routinely used for the growth of different pathogenic fungal strain. Ectophosphatase inhibitors NGXT191 (AI.1), AI.10, NGXT1913 (AI.13), and AI. 15 were used dal this study. The fungicides copper octanoate (C16H30CuO4), myclobutanil (C15H17ClN4) and propiconazole (C15H17Cl2N3O2) were used. The concentrations of these compounds used were copper octanoate (285 mM), myclobutanil (53.6 mM) and propiconazole (418 mM). Standard antifungal susceptibility disk tests were performed to determine any potentiating effect of ectophosphatase inhibitors on the growth of pathogenic fungus. The pathogenic fungus wild-type strains were plated on PDA medium with paper-disks containing, fungicides at the center of the plate. […] Plates were incubated at 30° C. for 7-days (C. graminicola and S. sclerotiorum) or 12-days (B. cinerea, F. oxysporum and V. dahliae), depending on the growth rate of the fungi. Plates were photographed, and the zone of fungal growth inhibition was measured by using IMAGE J™ software (NIH, USA). All the tests were performed with 5 replicates. The studies were performed two times. Results were analyzed for significance using Student T-tests.

[2] = tested on: plant pathogenic fungi; test: Fungal plate assays, apyrase inhibitors tested alone; conditions: apyrase inhibitor alone, no fungicide
Protocol: Standard antifungal susceptibility disk tests were performed to determine any potentiating effect of ectophosphatase inhibitors on the growth of pathogenic fungus. The pathogenic fungus wild-type strains were plated on PDA medium with paper-disks containing, fungicides at the center of the plate. […] Plates were incubated at 30° C. for 7-days (C. graminicola and S. sclerotiorum) or 12-days (B. cinerea, F. oxysporum and V. dahliae), depending on the growth rate of the fungi. Plates were photographed, and the zone of fungal growth inhibition was measured by using IMAGE J™ software (NIH, USA). All the tests were performed with 5 replicates. The studies were performed two times. Results were analyzed for significance using Student T-tests.

[3] = tested on: Fusarium oxysporum f.sp Cubense; test: Antifungal susceptibility disk test, fungicide disk plus apyrase inhibitor in plate; conditions: inhibitor 65 μM, 30° C., 12 days; for inhibitory effect on the growth of F. oxysporum compared to copper octanoate alone: combined with copper octanoate (285 mM) disk, FIG. 4A
Protocol: as §1, with “4B.” for “3B.”, “4C.” for “3C.”, “Fusarium oxysporum.” for “Colletotrichum graminicola.”, “P<0.001);” for “P<0.001;”

[4] = tested on: Verticillium dahliae; test: as above; conditions: inhibitor 65 μM, 30° C., 12 days; for inhibitory effect on the growth of V. dahliae compared to copper octanoate alone: combined with copper octanoate (285 mM) disk, FIG. 6A; for inhibitory effect on the growth of V. dahliae compared to propiconazole alone: combined with propiconazole (418 mM) disk, FIG. 6C
Protocol: Copper Octanoate, 6B. Propiconazole, and 6C. Myclobutanil against the pathogenic fungi Verticillium dahliae. […] The equivalent volume of dimethylsulphoxide (DMSO) was added as a control. The studies were repeated two times with similar results. Error bars indicate standard deviations (n=5). The significances of the potency of fungicides are indicated: *** […]); **(Student's t-test, P<0.01) or *(Student's t test, P<0.05). The plant pathogenic fungal strains Botrytis cinerea, Colletotrichum graminicola, Fusarium oxysporum, Sclerotiana sclerotiorum and Verticillium dahliae were obtained from the Institute for Plant Genomics & Biotechnology, Texas A & M University, USA Potato dextrose agar (PDA, Sigma-Aldrich) was routinely used for the growth of different pathogenic fungal strain. Ectophosphatase inhibitors NGXT191 (AI.1), AI.10, NGXT1913 (AI.13), and AI. 15 were used dal this study. The fungicides copper octanoate (C16H30CuO4), myclobutanil (C15H17ClN4) and propiconazole (C15H17Cl2N3O2) were used. The concentrations of these compounds used were copper octanoate (285 mM), myclobutanil (53.6 mM) and propiconazole (418 mM). Standard antifungal susceptibility disk tests were performed to determine any potentiating effect of ectophosphatase inhibitors on the growth of pathogenic fungus. The pathogenic fungus wild-type strains were plated on PDA medium with paper-disks containing, fungicides at the center of the plate. […] Plates were incubated at 30° C. for 7-days (C. graminicola and S. sclerotiorum) or 12-days (B. cinerea, F. oxysporum and V. dahliae), depending on the growth rate of the fungi. Plates were photographed, and the zone of fungal growth inhibition was measured by using IMAGE J™ software (NIH, USA). All the tests were performed with 5 replicates. The studies were performed two times. Results were analyzed for significance using Student T-tests.

SMILES	inhibitory effect on the growth of C. graminicola compared to copper octanoate alone [1]	inhibitory effect on the growth of C. graminicola compared to myclobutanil alone [1]	fungicidal activity when tested alone [2]	inhibitory effect on the growth of F. oxysporum compared to copper octanoate alone [3]	inhibitory effect on the growth of V. dahliae compared to copper octanoate alone [4]	inhibitory effect on the growth of V. dahliae compared to myclobutanil alone ([4]; combined with myclobutanil (53.6 mM) disk, FIG. 6B)	inhibitory effect on the growth of V. dahliae compared to propiconazole alone [4]	inhibitory effect on the growth of F. oxysporum compared to myclobutanil alone ([3]; combined with myclobutanil (53.6 mM) disk, FIG. 4B)	inhibitory effect on the growth of F. oxysporum compared to propiconazole alone ([3]; combined with propiconazole (418 mM) disk, FIG. 4C)
Cc1cccc(NS(=O)(=O)c2ccc(-c3ccccc3)cc2)c1 [AI.1, N-(m-tolyl)-[1,1′-biphenyl]-4-sulfonamide]	significantly greater inhibitory effect	significantly greater inhibitory effect	no fungicidal activity was detected	significantly greater inhibitory effect	significantly greater inhibitory effect	–	–	–	–
O=C(Nc1cccc([N+](=O)[O-])c1)c1cccc(S(=O)(=O)Nc2ccc(Br)cc2)c1 [AI.13, 3-(N-(4-bromophenyl)sulfamoyl)-N-(3-nitrophenyl)benzamide]	significantly greater inhibitory effect	significantly greater inhibitory effect	no fungicidal activity was detected	significantly greater inhibitory effect	significantly greater inhibitory effect	–	–	–	–
C/C(=N\NC(=O)c1cccc(C)c1)c1ccc2ccccc2c1 [AI.15, (E)-3-methyl-N′-(1-(naphthalen-2-yl)ethylidene)benzohydrazide]	–	significantly greater inhibitory effect	no fungicidal activity was detected	–	significantly greater inhibitory effect	significantly greater inhibitory effect	significantly greater inhibitory effect	–	–
CCCCCCCSC(=O)c1cc2ccccc2oc1=O [AI.10, S-heptyl 2-oxo-2H-chromene-3-carbothioate]	–	significantly greater inhibitory effect	no fungicidal activity was detected	–	significantly greater inhibitory effect	–	significantly greater inhibitory effect	significantly greater inhibitory effect	significantly greater inhibitory effect
